Results: ChEMBL document CHEMBL5550173, “Design, synthesis and biological evaluation of indoline-maleimide conjugates as potential antitumor agents for the treatment of colorectal cancer” (Bioorg Med Chem, 2024)

Key:
RKO [1] = assay: Cytotoxicity against human RKO cells at 5 uM incubated for 72 hrs by MTS assay; assay type: functional
HT-29 [2] = assay: Cytotoxicity against human HT-29 cells at 5 uM incubated for 72 hrs by MTS assay; assay type: functional
HCT-116 [3] = assay: Cytotoxicity against human HCT-116 cells at 5 uM incubated for 72 hrs by MTS assay; assay type: functional
RKO [4] = assay: Cytotoxicity against human RKO cells incubated for 72 hrs by MTS assay; assay type: functional, cell-based
[5] = Cytotoxicity against human NCM460 cells incubated for 72 hrs by MTS assay; assay type: toxicity, cell-based
HCT-116 [6] = assay: Cytotoxicity against human HCT-116 cells incubated for 72 hrs by MTS assay; assay type: functional, cell-based; conditions: HCT-116, 72 h
HT-29 [7] = assay: Cytotoxicity against human HT-29 cells incubated for 72 hrs by MTS assay; assay type: functional, cell-based; conditions: HT-29, 72 h

| SMILES | Activity (RKO [1]) | Activity (HT-29 [2]) | Activity (HCT-116 [3]) | other results |
| --- | --- | --- | --- | --- |
| CN1C(=O)C=C(c2cccc3c2N(C(=O)N2CCCCC2)CC3)C1=O | 17.85% |  |  |  |
| CN1C(=O)C=C(c2cc(I)cc3c2N(C(=O)C(C)(C)C)CC3)C1=O | 57.09% |  |  |  |
| CN1C(=O)C=C(c2ccc(Cl)c3c2N(C(=O)C(C)(C)C)CC3)C1=O | 57.87% |  |  |  |
| CN1C(=O)C=C(c2cc(Cl)cc3c2N(C(=O)C(C)(C)C)CC3)C1=O | 15.17% |  |  |  |
| CC(C)(C)C(=O)N1CCc2cccc(C3=CC(=O)N(C4CCCCC4)C3=O)c21 | 38.47% |  |  |  |
| CN(C)C(=O)N1CCc2cccc(C3=CC(=O)N(C)C3=O)c21 | 4.75% | 5.08% |  |  |
| C=C(C)C(=O)n1ccc2cccc(C3=CC(=O)N(C)C3=O)c21 | 58.25% | 10.28% | 32.89% |  |
| CC(C)(C)C(=O)N1CCc2cccc(C3=CC(=O)N(Cc4ccccc4)C3=O)c21 | 39.93% |  |  |  |
| C=CC(=O)N1CCc2cccc(C3=CC(=O)N(C)C3=O)c21 | 78.18% | 2.14% | 23.11% |  |
| Cc1cc2c(c(C3=CC(=O)N(C)C3=O)c1)N(C(=O)C(C)(C)C)CC2 | 17.49% |  |  |  |
| CN1C(=O)C=C(c2c(F)ccc3c2N(C(=O)C(C)(C)C)CC3)C1=O | 32.98% |  |  |  |
| CC1Cc2cccc(C3=CC(=O)N(C)C3=O)c2N1C(=O)C(C)(C)C (stereo not drawn) | 61.74% | 2.07% |  |  |
| O=c1[nH]cc(F)c(=O)[nH]1 [FLUOROURACIL] | 52.32% | 29.52% | 37.53% | IC50 (RKO [4]): 3.96 µM; IC50 at 72 h [5]: 7.95 µM; IC50 (HCT-116 [6]): 8.03 µM |
| CCc1ccc(N2C(=O)C=C(c3cccc4c3N(C(=O)C(C)(C)C)CC4)C2=O)cc1 | 7.21% | 7.09% | 10.96% |  |
| C=C(C)C(=O)N1CCc2ccccc21 |  | 4.7% |  |  |
| CN1C(=O)C=CC1=O | 33.16% | 7.09% | 51.17% |  |
| CC(C)(C)C(=O)N1CCc2cccc(C3=CC(=O)N(c4ccccc4)C3=O)c21 | 10.63% |  |  |  |
| CC(=O)c1ccc(N2C(=O)C=C(c3cccc4c3N(C(=O)C(C)(C)C)CC4)C2=O)cc1 |  | 4.69% |  |  |

| SMILES | Activity (RKO [1]) | Activity (HT-29 [2]) | Activity (HCT-116 [3]) | other results |
| --- | --- | --- | --- | --- |
| CC(=O)N1CCc2cccc(C3=CC(=O)N(C)C3=O)c21 | 48.13% | 6.8% |  |  |
| CN1C(=O)C=C(c2cccc3c2N(C(=O)c2cc4ccccc4o2)CC3)C1=O | 46.33% |  | 11.36% |  |
| COc1ccc2c(c1C1=CC(=O)N(C)C1=O)N(C(=O)C(C)(C)C)CC2 | 21.09% |  |  |  |
| COc1ccc(C2=CC(=O)N(C)C2=O)c2c1CCN2C(=O)C(C)(C)C | 16.41% | 4.04% |  |  |
| CC1CN(C(=O)C(C)(C)C)c2c(C3=CC(=O)N(C)C3=O)cccc21 (stereo not drawn) | 56.28% | 6.02% |  |  |
| CN1C(=O)C=C(c2cccc3c2N(C(=O)C(C)(C)C)CC3)C1=O | 79.24% | 49.95% | 76.85% | IC50 (RKO [4]): 2.31 µM; IC50 (HT-29 [7]): 5.52 µM; IC50 (HCT-116 [6]): 3.96 µM |
| COC(=O)CCN1C(=O)C=C(c2cccc3c2N(C(=O)C(C)(C)C)CC3)C1=O | 59.55% |  | 21.18% |  |
| CN1C(=O)C=C(c2cc(F)cc3c2N(C(=O)C(C)(C)C)CC3)C1=O | 78.58% | 18.8% | 6.51% |  |
| CN1C(=O)C=C(c2cccc3c2N(C(=O)C2CC2)CC3)C1=O | 88.42% | 43.87% | 76.22% | IC50 (RKO [4]): 2.12 µM; IC50 (HT-29 [7]): 5.11 µM; IC50 (HCT-116 [6]): 3.45 µM |
| CC(C)(C)C(=O)N1CCc2cccc(C3=CC(=O)NC3=O)c21 | 10.96% |  |  |  |
| CN1C(=O)C=C(c2cccc3c2N(C(=O)N2CCOCC2)CC3)C1=O | 22.03% | 6.82% |  |  |
| CCN1C(=O)C=C(c2cccc3c2N(C(=O)C(C)(C)C)CC3)C1=O | 80.91% | 16.99% | 59.58% |  |
| CCC(=O)N1CCc2cccc(C3=CC(=O)N(C)C3=O)c21 | 80.31% |  | 4.19% |  |
| CN1C(=O)C=C(c2cccc3c2N(C(=O)c2ccccc2)CC3)C1=O | 26.15% | 4.95% |  |  |
| CN1C(=O)C=C(c2cccc3c2N(C(=O)C2CCCCC2)CC3)C1=O | 65.05% |  |  |  |
| CC(C)N1C(=O)C=C(c2cccc3c2N(C(=O)C(C)(C)C)CC3)C1=O | 19.15% |  |  |  |
| CN1C(=O)C=C(c2cc(C#N)cc3c2N(C(=O)C(C)(C)C)CC3)C1=O | 50.21% | 4.68% |  |  |
